Several values for one entry are separate records, joined by “and”; a condition that tells them apart may be missing. Equal entries are not always repeated. Where two headings read alike, the source gives them in different places.
Experiments:
DRD4 (D4.4 variant) [1] = target: T1, DRD4 (D4.4 variant) (Homo sapiens, UniProt P21917); assay: Gαi/o-mediated cAMP inhibition (GloSensor); format: cell-based; conditions: DRD4; agonist, cAMP inhibition; read-out: EC50 ± SEM
T1 sequence (P21917 1-419): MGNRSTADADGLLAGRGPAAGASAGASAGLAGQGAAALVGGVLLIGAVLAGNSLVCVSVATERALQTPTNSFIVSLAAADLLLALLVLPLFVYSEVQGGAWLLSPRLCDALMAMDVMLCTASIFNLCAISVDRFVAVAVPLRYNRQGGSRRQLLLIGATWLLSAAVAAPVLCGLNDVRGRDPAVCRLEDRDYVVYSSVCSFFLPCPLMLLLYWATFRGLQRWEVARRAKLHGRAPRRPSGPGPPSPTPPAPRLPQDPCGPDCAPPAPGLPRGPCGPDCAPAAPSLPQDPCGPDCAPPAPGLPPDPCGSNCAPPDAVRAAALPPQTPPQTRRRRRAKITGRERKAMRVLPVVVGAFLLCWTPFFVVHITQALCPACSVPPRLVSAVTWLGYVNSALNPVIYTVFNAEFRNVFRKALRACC

DRD4 (D4.4 variant) [2] = target: T1, DRD4 (D4.4 variant); assay: β-arrestin2 recruitment (Tango); format: cell-based; conditions: DRD4; Tango; read-out: EC50 ± SEM
DRD3 F1063.28A [3] = target: T2, DRD3 F1063.28A (Homo sapiens, UniProt P35462, F106A); assay: cell-based; format: cell-based; conditions: DRD3 F1063.28A; Tango; read-out: EC50 ± SEM
T2 sequence (P35462 whole entry F106A): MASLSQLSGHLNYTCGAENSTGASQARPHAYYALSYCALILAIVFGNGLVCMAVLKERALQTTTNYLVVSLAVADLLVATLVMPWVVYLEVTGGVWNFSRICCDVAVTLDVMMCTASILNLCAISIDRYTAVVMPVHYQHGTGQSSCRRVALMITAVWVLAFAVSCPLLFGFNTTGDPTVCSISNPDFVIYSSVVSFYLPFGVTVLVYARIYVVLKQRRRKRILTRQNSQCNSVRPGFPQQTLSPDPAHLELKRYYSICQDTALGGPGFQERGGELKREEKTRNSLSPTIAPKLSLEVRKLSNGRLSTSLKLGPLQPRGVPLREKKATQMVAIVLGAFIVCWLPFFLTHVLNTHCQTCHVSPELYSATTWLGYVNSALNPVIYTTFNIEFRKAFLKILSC

DRD2 (D2 long receptor) [4] = target: T3, DRD2 (D2 long receptor) (Homo sapiens, UniProt P14416); assay: β-arrestin2 recruitment (Tango), HTLA cells; format: cell-based
T3 sequence (P14416 whole entry): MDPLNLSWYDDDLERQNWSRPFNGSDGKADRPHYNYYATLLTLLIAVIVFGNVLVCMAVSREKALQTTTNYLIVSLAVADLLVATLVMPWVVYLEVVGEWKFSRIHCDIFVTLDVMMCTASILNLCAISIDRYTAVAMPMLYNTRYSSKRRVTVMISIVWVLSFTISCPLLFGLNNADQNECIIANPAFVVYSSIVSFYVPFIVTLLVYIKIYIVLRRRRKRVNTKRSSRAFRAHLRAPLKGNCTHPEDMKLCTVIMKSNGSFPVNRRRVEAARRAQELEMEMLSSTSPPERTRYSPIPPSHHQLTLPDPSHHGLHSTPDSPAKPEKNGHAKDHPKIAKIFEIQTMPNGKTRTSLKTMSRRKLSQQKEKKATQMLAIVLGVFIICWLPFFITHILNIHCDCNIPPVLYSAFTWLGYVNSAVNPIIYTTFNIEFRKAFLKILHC

DRD2 (D2 long receptor) [5] = target: T3, DRD2 (D2 long receptor); assay: Gαi/o-mediated cAMP inhibition (GloSensor split-luciferase cAMP reporter), HEK293T; format: cell-based; conditions: for response, Fig_S11d dose-response source data: replicate values;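 as to all read-outs here: compounds applied 15 min at room temperature, then luciferin plus 400 nM isoproterenol to raise cAMP through endogenous β2-adrenergic receptors, luminescence read 15 min later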
[6] = target: T4, DRD4 (D4.4 variant) wild-type (Homo sapiens, UniProt P21917); assay: Radioligand competition binding, [3H]-N-methylspiperone; conditions: DRD4; [3H]-methylspiperone (0.8-1.0 nM); read-out: Ki
T4 sequence (P21917 1-419): T1 sequence (P21917 1-419)

DRD2 F1103.28A [7] = target: T5, DRD2 F1103.28A (Homo sapiens, UniProt P14416, F110A); assay: Gαi/o-mediated cAMP inhibition (GloSensor), mutant; format: cell-based; parameters: expressed in transfected cells; host or cells: HEK293T (ATCC CRL-11268)
T5 sequence (P14416 whole entry F110A): as the sequence (P14416 whole entry) above, with F110A counted along it

DRD3 wild-type = DRD3 wild-type (Homo sapiens, UniProt P35462); assay: Radioligand competition binding, [3H]-N-methylspiperone
DRD3 wild-type, sequence (P35462 whole entry): as the sequence (P35462 whole entry F106A) above, with A106F counted along it

DRD2 F1103.28A [8] = target: T5, DRD2 F1103.28A; assay: β-arrestin2 recruitment (Tango), mutant; format: cell-based; parameters: expressed in transfected cells; host or cells: HEK293T (ATCC CRL-11268)
DRD2 F1103.28L [9] = target: T6, DRD2 F1103.28L (Homo sapiens, UniProt P14416, F110L); assay: Gαi/o-mediated cAMP inhibition (GloSensor), mutant; format: cell-based; conditions: DRD2 F1103.28L (b138 head prints DRD2 F1063.28L)
T6 construct: expressed in transfected cells; host or cells: HEK293T (ATCC CRL-11268)
T6 sequence (P14416 whole entry F110L): as the sequence (P14416 whole entry) above, with F110L counted along it

[10] = target: DRD2 (D2 long receptor) wild-type (Homo sapiens, UniProt P14416); assay: Radioligand competition binding, [3H]-N-methylspiperone, HEK293T membranes
DRD2 (D2 long receptor) wild-type, sequence (P14416 whole entry): as the sequence (P14416 whole entry) above

DRD3 F1063.28A [11] = target: T2, DRD3 F1063.28A; assay: biochemical; format: binding
DRD2 F1103.28A [12] = target: T5, DRD2 F1103.28A; format: binding; parameters: expressed in transfected cells; host or cells: HEK293T (ATCC CRL-11268)
DRD3 = DRD3 (Homo sapiens, UniProt P35462); assay: β-arrestin2 recruitment (Tango); format: cell-based; conditions: DRD3; Tango; read-out: EC50 ± SEM
DRD3, sequence (P35462 whole entry): as the sequence (P35462 whole entry F106A) above, with A106F counted along it

DRD2 F1103.28L [13] = target: T6, DRD2 F1103.28L; assay: β-arrestin2 recruitment (Tango), mutant; format: cell-based

CCOc1cccc2cc(C(C)NCC3(O)CCCC3)oc12.Cl (racemic) [O4LE5]
EC50 (DRD4 (D4.4 variant) [1]): > 10 µM
EC50 (DRD4 (D4.4 variant) [2]): > 10 µM
EC50 (DRD3 F1063.28A [3]): > 10 µM
response, Fig_S11e dose-response source data (DRD2 (D2 long receptor) [4]): 4.195 and 4.191
Emax relative to quinpirole response (DRD2 (D2 long receptor) [4]; DRD2, Tango): 69.77%
EC50 (DRD2 (D2 long receptor) [4]; DRD2, β-arrestin2 recruitment (Tango), read-out: EC50 ± SEM): 0.591 ± 0.16 µM
response, Fig_S11e dose-response source data (DRD2 (D2 long receptor) [4]; Fig_S11e, Log[Drug] -6.52, replicate values): 29.7819
response, Fig_S11e dose-response source data (DRD2 (D2 long receptor) [4]; Fig_S11e, Log[Drug] -7, replicate values): 14.8195 and 15.4716 and 11.9245 and 14.4902 and 10.6077 and 13.3375 and 15.5705 and 13.1474 and 10.3991
response, Fig_S11e dose-response source data (DRD2 (D2 long receptor) [4]; Fig_S11e, Log[Drug] -7.52, replicate values): 5.649 and 7.617 and 8.153 and 5.088 and 5.357 and 5.685 and 6.459 and 7.136 and 7.327
response, Fig_S11e dose-response source data (DRD2 (D2 long receptor) [4]; Fig_S11e, Log[Drug] -8, replicate values): 4.53 and 4.924 and 7.437 and 4.448 and 4.588 and 4.761 and 4.942 and 5.222 and 4.354
response, Fig_S11e dose-response source data (DRD2 (D2 long receptor) [4]; Fig_S11e, Log[Drug] -8.52, replicate values): 5.418 and 3.578 and 5.097 and 4.558 and 4.204 and 3.944 and 4.259 and 4.448
response, Fig_S11e dose-response source data (DRD2 (D2 long receptor) [4]; Fig_S11e, Log[Drug] -9, replicate values): 5.551 and 4.294 and 3.766 and 4.187 and 3.973 and 4.022 and 3.996 and 4.409 and 5.115
response, Fig_S11e dose-response source data (DRD2 (D2 long receptor) [4]; Fig_S11e, Log[Drug] -9.52, replicate values): 3.774 and 3.895 and 3.825 and 3.992 and 4.187 and 3.4742 and 3.994 and 4.11
response, Fig_S11e dose-response source data (DRD2 (D2 long receptor) [4]; Fig_S11e, Log[Drug] -10, replicate values): 3.543 and 4.048 and 4.417 and 4.083 and 4.005 and 3.8893 and 4.472 and 4.295 and 4.703
response, Fig_S11e dose-response source data (DRD2 (D2 long receptor) [4]; Fig_S11e, Log[Drug] -10.52, replicate values): 4.321 and 3.611 and 3.873 and 3.908 and 3.996 and 3.919 and 3.699 and 4.48 and 4.116
response, Fig_S11e dose-response source data (DRD2 (D2 long receptor) [4]; Fig_S11e, Log[Drug] -11, replicate values): 3.51 and 3.391 and 4.782 and 4.294 and 4.024 and 3.997 and 3.756 and 4.401 and 4.222
response, Fig_S11e dose-response source data (DRD2 (D2 long receptor) [4]; Fig_S11e, Log[Drug] -11.52, replicate values): 3.707 and 4 and 3.724 and 4.053 and 3.84 and 3.862 and 4.291 and 4.0833 and 3.6644
response, Fig_S11e dose-response source data (DRD2 (D2 long receptor) [4]; Fig_S11e, Log[Drug] -12, replicate values): 4.3048 and 3.879 and 4.62 and 3.975 and 4.688 and 4.168 and 3.647 and 4.316 and 4.328
EC50 (DRD2 (D2 long receptor) [5]; DRD2, agonist, Gαi/o-mediated cAMP inhibition, read-out: EC50 ± SEM): 0.0203 ± 0.00906 µM
Emax relative to quinpirole response (DRD2 (D2 long receptor) [5]; DRD2, cAMP inhibition): 90.02%
response, Fig_S11d dose-response source data (DRD2 (D2 long receptor) [5]; Log[Drug] -6.52): 89.8047
response, Fig_S11d dose-response source data (DRD2 (D2 long receptor) [5]; Log[Drug] -7): 65.0385 and 57.9248 and 60.2207 and 80.9341 and 74.6312 and 79.279 and 82.9188 and 82.7948 and 77.3857
response, Fig_S11d dose-response source data (DRD2 (D2 long receptor) [5]; Log[Drug] -7.52): 39.5571 and 33.4973 and 24.3511 and 57.6284 and 63.6471 and 63.1957 and 71.0585 and 72.7209 and 64.8058
response, Fig_S11d dose-response source data (DRD2 (D2 long receptor) [5]; Log[Drug] -8): 9.5215 and 11.2717 and 13.7182 and 48.383 and 49.6202 and 44.9055 and 35.7008 and 48.9506 and 59.4463
response, Fig_S11d dose-response source data (DRD2 (D2 long receptor) [5]; Log[Drug] -8.52): -3.6708 and -0.0387 and -1.4878 and 27.1503 and 28.8723 and 39.8732 and 29.7954 and 40.3159 and 28.6789
response, Fig_S11d dose-response source data (DRD2 (D2 long receptor) [5]; Log[Drug] -9): 6.661 and 7.056 and -0.9609 and 40.0738 and 31.9486 and 25.4952 and 24.1382 and 31.3586 and 28.8029
response, Fig_S11d dose-response source data (DRD2 (D2 long receptor) [5]; Log[Drug] -9.52): 12.3068 and -0.3586 and -16.1104 and 30.2934 and 20.4294 and 33.0687 and 10.7891 and 20.7389 and 17.29
response, Fig_S11d dose-response source data (DRD2 (D2 long receptor) [5]; Log[Drug] -10): -16.468 and 1.297 and -13.024 and 16.0491 and 30.494 and 18.4566 and 11.0621 and 15.5283 and 8.9282
response, Fig_S11d dose-response source data (DRD2 (D2 long receptor) [5]; Log[Drug] -10.52): -14.0967 and 4.779 and -14.8495 and 16.7012 and 24.0741 and 20.5632 and 2.204 and 13.0967 and 9.052
response, Fig_S11d dose-response source data (DRD2 (D2 long receptor) [5]; Log[Drug] -11): -2.7111 and 12.7961 and -15.5834 and 17.8548 and 27.4178 and 14.9457 and -4.6938 and 9.499 and 12.5508
response, Fig_S11d dose-response source data (DRD2 (D2 long receptor) [5]; Log[Drug] -11.52): -7.9428 and 7.113 and -8.1498 and 19.6269 and 38.218 and 27.7856 and 20.6149 and 38.3557 and 9.623
response, Fig_S11d dose-response source data (DRD2 (D2 long receptor) [5]; Log[Drug] -12): -24.8425 and -18.4063 and -14.0215 and 7.974 and -7.6244 and -4.264 and -3.478 and -21.2934 and -10.4999
Ki [6]: > 10 µM
EC50 (DRD2 F1103.28A [7]): 0.05 ± 0.04 nM
Emax relative to quinpirole response (DRD2 F1103.28A [7]): 13.66%
Ki (DRD3 wild-type; DRD3, [3H]-methylspiperone (0.8-1.0 nM), read-out: Ki): 1.02 µM
pKi ± SEM (DRD3 wild-type; DRD3 wild-type): 5.99±0.02
EC50 (DRD2 F1103.28A [8]): > 10 µM
EC50 (DRD2 F1103.28L [9]): > 10 µM
Ki ([10]; DRD2, [3H]-methylspiperone (0.8-1.0 nM), read-out: Ki): 9.55 µM
pKi ± SEM ([10]; DRD2 wild-type): 5.02±0.07
pKi ± SEM (DRD3 F1063.28A [11]; DRD3 F1063.28A): 5.37±0.13
Ki (DRD3 F1063.28A [11]; DRD3 F1063.28A, read-out: Ki): 4.27 µM
affinity decreased, mutant vs wild type (DRD3 F1063.28A [11]; DRD3 Phe106^3.28Ala vs wild-type DRD3): 4.19 fold
pKi ± SEM (DRD2 F1103.28A [12]; DRD2 F1103.28A): 6.03±0.14
Ki (DRD2 F1103.28A [12]; DRD2 F1103.28A, read-out: Ki): 0.93 µM
affinity increase (binding enhanced), mutant vs wild type (DRD2 F1103.28A [12]; DRD2 Phe110^3.28Ala vs wild-type DRD2): 10.27 fold
EC50 (DRD3): > 10 µM
EC50 (DRD2 F1103.28L [13]): > 10 µM
